Measurements: patent US11517581B2, “Zika virus protease inhibitors and methods of use thereof” (priority 2017, dated 2022)
Values after ≈ are worked out from the molar mass of the structure shown.

What was measured:
[1] = Cell viability (MTT) assay in Vero cells; format: cell-based; conditions: African green monkey
Protocol: (§1) Briefly, Vero or Huh-7 cells (4×10^4 cells/well) were incubated with different concentrations of individual drug for 24 h, followed by the addition of 10 μl/well of 5 mg/ml MTT substrate. The monolayers were incubated as above for 4 h (away from light). Finally, 100 μl of 10% sodium dodecyl sulfate (SDS) with 0.01M HCl was added and further incubated at 37° C. with 5% CO2 overnight. […] Briefly, the drug compounds were diluted with serum-free MEM and added to confluent Vero cells in 96-well culture plates (4×10^4 cells/well) in triplicate for 2 h at 37° C. After incubation, the drug-containing media were removed, and ZIKV (multiplicity of infection, MOI=0.0002) was added together with fresh drug-compound media to each well. Following 1 h of adsorption at 37° C., the virus-compound mixture was removed and the cells were washed twice with MEM to remove unbound virus. Subsequently, media with antiviral compounds were added to the cells for further incubation for 6 days at 37° C. in a 5% CO2 humidified environment. CPE was examined by inverted light microscopy (Chan et al., 2016b). Thereafter, MTT substrate and SDS-HCl were added sequentially as mentioned above. The half maximal inhibitory concentration (IC50) and CC50 were calculated using Sigma plot (SPSS) in an Excel add-in ED50V10.

[2] = Cell viability (MTT) assay in Huh-7 cells; format: cell-based; conditions: human
Protocol: as §1

ZIKV = assay: Time-of-drug-addition assay in Vero cells; format: cell-based, Zika virus
Protocol: Briefly, Vero cells were seeded in 24-well plates (2×10^5 cells/well). The cells were inoculated with ZIKV (MOI=2) and then incubated for 1 h for virus internalization. The viral inoculum was then removed and the cells were washed twice with PBS. […] At 18 hpi, the cell culture supernatant of each time point experiment was collected for viral load measurement using qRT-PCR.

ZIKV NS2B-NS3 protease = ZIKV NS2B-NS3 protease (Zika virus, UniProt A0A024B7W1, DEL1468-1502); assay: Enzyme kinetic experiments, mode of protease inhibition; format: biochemical; conditions: 5 nM protease, substrate 0-100 μM, drug 0-1000 μg/ml; global R^2=0.99
Protocol: Hydrogen bonds and hydrophobic contact areas are represented by dashed lines and the two brackets, respectively. The main interacting residues are labeled. The dashed lines represent bonds between hydrogen and acceptor atoms that are involved. […] In the assay, concentration of ZIKV NS2B-NS3 protease was fixed as 5 nM, while different concentrations of substrate (100, 50, 25, 12.5, 6.25, 3.125 and 0 μM) were added to plot the enzyme kinetic curves. Four concentrations of the drug (1000, 250, 62.5 and 0 μg/ml) were tested individually against the different concentrations of substrate. The experiments were repeated twice for confirmation. The data were analyzed for mode of inhibition by GraphPad Prism 6 in the module of enzyme kinetics. R^2>0.95 was considered as statistically significant.
To explore the mode of protease inhibition, enzyme kinetic experiments were performed in the presence or absence of the drug.

[3] = human; cited from earlier work

Sequence of ZIKV NS2B-NS3 protease (A0A024B7W1 1502-1672, added parts left off, stated change not applied): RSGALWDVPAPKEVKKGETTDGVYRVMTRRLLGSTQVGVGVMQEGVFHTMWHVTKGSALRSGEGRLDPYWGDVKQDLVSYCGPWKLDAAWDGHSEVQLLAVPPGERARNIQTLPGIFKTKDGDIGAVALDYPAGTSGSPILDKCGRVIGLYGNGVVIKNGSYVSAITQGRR

CO[C@@H]1[C@@H](OC(N)=O)[C@@H](O)[C@H](Oc2ccc3c(O)c(NC(=O)c4ccc(O)c(CC=C(C)C)c4)c(=O)oc3c2C)OC1(C)C [Novobiocin]
CC50 at 24 h [1]: 850 µg/mL (≈ 1390 µM)
CC50 at 24 h [2]: 1100 µg/mL (≈ 1800 µM)
Viral loads at 18 hpi, drug added during virus replication stage (ZIKV; 100 μg/ml added at 0, 3, 6, 9, or 12 hpi, MOI 2, P<0.05): significantly reduced
Inhibitory activity, drug added at adsorption or release stage (ZIKV; 100 μg/ml at 0-1 hpi or at 14 hpi): No significant inhibitory activity
ZIKV attachment, cells pretreated with drug (ZIKV; 100 μg/ml, −1 to 0 hpi): not affected
Mode of protease inhibition (ZIKV NS2B-NS3 protease): competitive
Clinical tolerability [3]: generally well tolerated clinically
